# Data reported in article PMC8406304, “Inhibiting Type VI Secretion System Activity with a Biomimetic Peptide Designed To Target the Baseplate Wedge Complex” (mBio, 2021).
# Several values for one entry are separate records, joined by “and”; a condition that tells them apart may be missing. Equal entries are not always repeated. Entries after “also recorded” stand apart in the source; their conditions may differ.
# Legend:
# [1] = system: TssK-TssFGE (TssKFGE wedge complex); test: Biolayer interferometry (BLI), TssFGE binding to biotinylated TssK; format: biochemical, enteroaggregative Escherichia coli (EAEC)
# Experimental: Streptavidin-tagged TssK was purified as described above. The TssK trimer was further polished by size exclusion chromatography using a Superose 6 10/300 GL (GE Healthcare) in 50 mM HEPES (pH 7.0), 150 mM NaCl at 0.25 ml/min. For biolayer interferometry (BLI) experiments, we used high-precision Strep (SAX) biosensors from Forté Bio (number 18-5117) on the BLItz machine (Forté Bio). The trimeric ligand TssK was biotinylated using equimolar N-hydroxysuccinimide (NHS)–polyethylene glycol 4 (PEG4)–biotin (Pierce EZ-Link; 21330) in 50 mM HEPES (pH 7.0), NaCl 150 mM for 1 h at room temperature before buffer exchange in CentriPure P2 (Generon; IRL) columns against 50 mM HEPES (pH 7.0), NaCl 150 mM to remove the excess biotin. BL21(DE3) cells were used to express the interacting analytes TssG-TssF-TssE. In addition, cells containing an empty plasmid were used as a control. Cells were broken as described above, and the clarified supernatants after centrifugation for 30 min at 20,000 × g contained the control and TssFGE lysate. Streptavidin biosensors were hydrated for 10 min in HEPES buffer before binding of the biotinylated TssK. Biotinylated TssK was loaded at 1.2 μM onto the SAX biosensors for 120 s, and then the excess TssK was dissociated in HEPES buffer for 120 s. For the remaining kinetic assays, we used kinetic buffer (PBS [pH 7.3] plus 0.02% Tween 20, 0.1% bovine serum albumin [BSA], 0.05% sodium azide) (Forté Bio number 18-5032) with orbital shaking at 2,200 rpm. Kinetic buffer (KB) was used to dilute the lysates and the peptide to decrease nonspecific signals. The unbound Strep sites were blocked with 2 μM control lysate for 120 s and washed with KB for 120 s. The kinetic assays were performed using three steps with different times: baseline, 30 s; association, 120 s; and dissociation, 120 s. All the following assays were performed in triplicate. […] In the first assay, we added 47 μM lysate expressing the analytes TssG, TssF, and TssE to the bound TssK. In the second assay, we added 1 mM wild-type (WT) BCP to the bound TssK before adding 47 μM TssF-TssG-TssE. In the third assay, to validate the specificity of the WT BCP we added 1 mM mutant BCP that lacks the binding residues to the bound TssK before adding 47 μM TssF-TssG-TssE. Last, to redemonstrate the specificity of the BCP-WT, we added 1 mM randomized BCP that contains the binding residues but out of order to the bound TssK before adding 47 μM TssF-TssG-TssE.
# [2] = system: TssK-sfGFP foci in EAEC (assembled baseplates); format: cell-based, enteroaggregative Escherichia coli (EAEC)
# Experimental: Fluorescence microscopy experiments were performed as previously described ([97], [98]). An overnight culture in LB of EAEC strain with a chromosomal GFP fusion to TssK was diluted 1/200 in SIM medium and grown at 37°C until the culture reached an A600 of ∼0.8. Ten optical density units (ODU) was pelleted for 10 min at 3,500 × g, resuspended at 1 ODU/ml in the same SIM medium supplemented with 0.8 M NaCl, and equilibrated for 1 h at room temperature. Cells were pelleted for 10 min at 3,500 × g, resuspended in 100 μl of classical SIM without NaCl supplemented with 1 mM peptide of buffer, and incubated for 20 min at room temperature. Cells were diluted in classical SIM medium at 0.4 ODU/ml and incubated at 37°C 160 rpm until the absorbance again reached ∼0.8. Ten ODU was harvested and resuspended in fresh SIM medium. Cell mixtures were spotted on a thin pad of SIM medium supplemented with 2% agarose, covered with a coverslip, and incubated for 20 to 30 min at room temperature before microscopy acquisition. Fluorescence microscopy was performed with a Nikon Eclipse Ti2 microscope equipped with a 100× objective (numerical aperture, 1.45), an Orca-Fusion digital camera (Hamamatsu), and a perfect focus system (PFS) to automatically maintain focus so that the point of interest within a specimen is kept in sharp focus at all times despite mechanical or thermal perturbations. All fluorescence images were acquired in Hilo mode using an Ilas2 TIRF module (Gataca Systems). Exposure times were typically 100 ms for phase contrast and 100 ms using the GFP channel. For image treatment, noise and background were reduced by filtering large structures down to 40 pixels in the FFT Bandpass Filter function of ImageJ ([102]). The GFP foci were automatically detected using the MicrobeJ plugin ([103]).
# [3] = system: EAEC T6SS+ killing of E. coli K-12 W3110 prey; test: Antibacterial growth competition assay (EAEC attacker vs E. coli prey); format: cell-based, enteroaggregative Escherichia coli (EAEC); details: 1 mM BCP added directly to competition mixture, 4 h at 37°C, CFU enumeration
# Experimental: Based on the BCP ability to bind to TssK and to limit the in vitro binding of the TssFGE wedge components onto TssK, we evaluated its T6SS interference potential on bacteria. We set up a competition experiment between EAEC (predator, T6SS^+) and E. coli (prey, T6SS^−) strains (see Materials and Methods) in the presence or absence of the BCP. Incubation of cells with 1 mM BCP is accompanied by a drastic decrease of prey cells number, similar to what is observed in the absence of BCP. […] To test this hypothesis, we developed a protocol favoring BCP entry into bacterial cells without any electroporation or chemical steps likely to impair T6SS activity (see Materials and Methods).
# The antibacterial growth competition assay was performed as previously described ([100]). Wild-type E. coli K-12 strain W3110 bearing the pUA66-rrnB plasmid (conferring kanamycin resistance and constitutive GFP fluorescence, with the gfp gene under the control of the ribosomal rrnB promoter) ([101]) was used as the recipient. Attacker and recipient cells were grown for 16 h in LB medium, diluted in SIM medium to allow maximal expression of the sci-1 gene cluster. Once the culture reached an A600 of ∼0.8, cells were harvested and normalized, and drops of the mixture were spotted in triplicate onto a prewarmed dry SIM agar plate with or without the addition of 0.5 mg ml^−1 arabinose. […]
# EAEC = test: Bacterial growth / toxicity of the peptide; format: cell-based, enteroaggregative Escherichia coli (EAEC); details: up to 1 mM, EAEC TssK-GFP in SIM medium, OD at 600 nm; biological triplicates
substance,measurement,setting,value
"SRPVMG-SRPVMG-SRPVMG (head to tail) [BCP, biomimetic cyclic peptide SRPVMG-SRPVMG-SRPVMG mimicking TssG foot 1]",TssFGE binding response over time in the presence of the BCP,"[1]; BLI sensogram, control lysate signal (50 μM TssFGE lysate without bound TssK) subtracted, three independent experiments",decreasing binding response over time
same,maximum binding average response of TssFGE to TssK at 150 s in presence of peptide,"[1]; BLI, 47 μM TssFGE lysate, TssK preincubated with 1 mM peptide, kinetic buffer pH 7.3, mean ± SD of three independent assays, listed as wild-type BCP",0.121 ± 0.010 nm and 0.121 ± 0.0102 nm
same,interference with TssKFGE formation,"[1]; BLI, 1 mM peptide, in words",significatively interferes with the TssKFGE formation
same,time of maximum effect after peptide entry,[2]; 1 mM,within the first hour after peptide entry
same,increase in proportion of bacteria with no observable TssK-sfGFP foci,"[2]; 1 mM peptide, hypo-osmotic shock (osmoporation), vs peptide-free treated cells, ∼500 cells per condition, triplicate",~30%
same,number of fluorescent TssK-sfGFP foci,"[2]; 1 mM peptide, hypo-osmotic shock, in words, ∼500 cells per condition, triplicate",decreased TssK-sfGFP foci compared to both control peptides
same,TssK-GFP foci without osmotic shock,"[2]; BCP, cells without osmotic shock, compared to cells without peptide",comparable to those without peptide
same,requirement of hypo-osmotic shock for entry into cells,"[2]; EAEC TssK-GFP, SIM medium, NaCl-induced hypo-osmotic shock",mandatory for BCP entry into cells
same,effect on killing ability of EAEC (prey survival),[3],does not affect the killing ability of EAEC
same,toxicity for bacteria,EAEC,not toxic for bacteria up to 1 mM; also recorded: no impact on the growth of EAEC
